Measurements: US20240148736A1, “COMBINATION DRUG FOR TREATING RENAL CANCER AND POTENTIATOR FOR THERAPEUTIC EFFECTS OF TYROSINE KINASE INHIBITOR” (Saitama Medical University, priority 2020, published 2024)

Key:
IL6 mRNA [1] = assay: IL6 mRNA level in 3D culture of ACHN-R cells (qRT-PCR); type: cell-based, human; settings: SITA treatment versus vehicle, ACHN-R cells 3D culture
Description: (§1) Extraction of RNA, synthesis of cDNA, and quantitative reverse-transcription polymerase chain reaction (qRT-PCR) were carried out according to the methods disclosed in “[…], et al. ALDH1A1 in patient-derived bladder cancer spheroids activates retinoic acid signaling leading to TUBB3 overexpression and tumor progression. Int. J. Cancer 146, 1099-1113 (2019).” FIGS. 4k to 4l depict the results studying how SITA treatment affects the IL6 mRNA level in the 3D cultures of the ACHN-R cells (FIGS. 4k) and 769-P-R cells (FIG. 4l), which are both SUN resistant cells. […] In FIGS. 4k to 4l, moreover, “*” represents P<0.05.

RCC-B spheroids = assay: Cell survival rate assay on spheroid culture (CellTiter-Glo 3D); type: cell-based, human; settings: SITA (100 μM) in combination with SUN, third day
Source text: (§2) After attaining the informed consent from the patients at Saitama Medical Center, Saitama Medical University, patient-derived cells (PDC) were produced from the tumors excised from the RCC patients. The tumor samples were processed with reference to the literature (Namekawa, T, et al. ALDH1A1 in patient-derived bladder cancer spheroids activates retinoic acid signaling leading to TUBB3 overexpression and tumor progression. Int. J. Cancer 146, 1099-1113 (2019)). The protocol of the research was approved by the Ethics Committee of Saitama Medical Center, Saitama Medical University (No. 1363-IV).
(§3) A cell survival rate of the cells 3 days after the drug treatment and siRNA transfection was evaluated by CellTiter-Glo 3D Assay (Promega K.K.).
(§4) FIGS. 2b to 2c depict the results of treating the RCC-A spheroids and the RCC-B spheroids with SITA (100 μM) and SUN. The data was presented as the mean value ±SD of the relative luciferase activity as analyzed by an ATP-based luciferase assay. […] In FIGS. 2b to 2c, moreover, “*” represents P<0.05.
(§5) The production of the spheroid ATP in the RCC-A cells or RCC-B cells treated with SUN alone or a combination of SUN and SITA on the third day was measured with the luciferase activity using the CEllTiter-Glo. […]

RCC-A spheroids = assay: as above; type: cell-based, human; settings: SITA (100 μM) in combination with SUN, third day
Source text: as §2, §3, §4, §5

ACHN-R cells = assay: 3D spheroid proliferation / cell survival rate assay; type: cell-based, human
Description: (§6) ACHN and 769-P, which were human RCC cell lines, were acquired from the American Type Culture Collection (ATCC), and those authenticated by short tandem repeat (STR) analysis performed by BEX CO., LTD. were used. The ACHN and 769-P cells were cultured on a DEME medium and a PRMI medium (NACALI TESQUE, INC.), respectively, to both of which 10% of FBS, 100 U/mL of penicillin, and 100 μg/mL of streptomycin were added, using an incubator set at 37° C. and 5% CO2. The ACHN and 769-P cells were exposed to sunitinib (SUN) at 10 μM max., for 6 months or longer, to produce SUN resistant RCC cell lines, ACHN-R and 769-P-R, respectively.
as §3
(§7) FIG. 4a depicts the results of ACHN-R and the parent cell line thereof. FIG. 4b depicts the results of 769-P-R and the parent cell line thereof. […] In FIGS. 4a to 4b, moreover, “ns” represents “no significant difference.”
(§8) FIGS. 4c to 4f are diagrams depicting the results of studying the effect of the combination of SITA and SUN in the 3D culture of the ACHN cells (FIG. 4c), ACHN-R cells (FIG. 4d), 769-P cells (FIG. 4e), or 769-P-R cells (FIG. 4f). The concentration of SITA used was 100 μM. […] In FIGS. 4c, 4d, and 4f, moreover, […] represents P<0.05.
(§9) FIGS. 4g to 4j are diagrams depicting the results studying how the DPP4 knockdown by siRNA affects the therapeutic effects of SUN in the 3D culture of the ACHN cells (FIG. 4g), ACHN−R cells (FIG. 4h), 769-P cells (FIG. 4i), or 769-P-R cells (FIG. 4j). The data was represented as the means value±SD of the relative luciferase activity of each group of the spheroids, and n=3. […] In FIGS. 4h to 4j, moreover, “*” represents P<0.05.

769-P-R cells = assay: as above; type: cell-based, human
Description: as §6, §3, §7, §8, §9

IL6 mRNA [2] = assay: IL6 mRNA level in 3D culture of 769-P-R cells (qRT-PCR); type: cell-based, human; settings: SITA treatment versus vehicle, 769-P-R cells 3D culture
Description: as §1

ACHN cells = assay: 3D spheroid proliferation / cell survival rate assay; type: cell-based, human; settings: SITA alone, dose-response
Description: as §6, §3, §7
(§10) FIGS. 4m to 4n are diagrams depicting the results studying how the DPP4 overexpression affects the cell survival rate of the RCC spheroids treated with SUN. ACHN cells (FIG. 4m) and 769-P cells (FIG. 4n), each stably expressing a control vector (vector #1 or #2) or DPP4 (DPP4 #1 or #2) were treated with SUN, and were analyzed by an ATP-based luciferase assay. […]

769-P cells = assay: as above; type: cell-based, human; settings: SITA alone, dose-response
Description: as §6, §3, §7, §10

ACHN-R xenograft tumor = assay: Xenograft tumor model in nude mice; type: in vivo
Description: Male nude mice (BALB/c-nu/nu, 6 weeks old) were acquired from CLAIR Japan, Inc. The ACHN cells and the ACHN−R cells were each subjected to trypsinization, followed by washing with PBS. Then, 5×10^6 cells of the ACHN cells or the ACHN−R cells were dispersed in 150 μL of Matrigel (BD Biosciences), and were subcutaneously inoculated in each mouse. The size of the tumor was measured every day. The tumor volume (V) was determined by measuring the length (L) and the width (W), and inserting the measured values in the following equation.
When the volume of the engrafted tumor reached 180 mm^3, SUN (20 mg/kg) was orally administered to the mice inoculated with the ACHN cells, and SUN (20 mg/kg) alone or two drugs, SUN (20 mg/kg) and DPP4 inhibitor sitagliptin (SITA) (30 mg/kg), were orally administered to the randomly selected mice inoculated with the ACHN-R cells. […] The drug was administered in a cycle consisting of 2 consecutive days of administration, followed by 1 day of washout.
At the point when the volume of the ACHN or ACHN−R xenograft nude mouse tumor reached 180 mm^3, oral administration of SUN alone, or a combination of SUN and SITA was started.
The data was presented as the mean SD, and n=6. […] The tumor volume was estimated by measuring the size of the tumor with Vernier calipers. […] In FIGS. 6a and 6b, moreover, “k” represents P<0.05.
Ki67 immunohistochemical staining of the excised tumor of each group was carried out to determine a ratio of Ki67 positive cells (Ki67 index). […] The scale bar is 50 μm. […] In FIG. 6g, moreover, “*” represents P<0.05.
The expression level was evaluated by qRT-PCR. […] In FIGS. 6h to 6l, moreover, “*” represents P<0.05.

[3] = combination of SUN and SITA (100 μM)

SMILES: N[C@@H](CC(=O)N1CCn2c(nnc2C(F)(F)F)C1)Cc1cc(F)c(F)cc1F [SITA, sitagliptin]
- IL6 mRNA level (IL6 mRNA [1]): reduced the expression of mRNA of IL6
- proliferation inhibition effect owing to SUN (cell survival rate, relative luciferase activity) (RCC-B spheroids): proliferation inhibition effect owing to SUN was enhanced
- proliferation inhibition effect owing to SUN (cell survival rate, relative luciferase activity) (RCC-A spheroids): proliferation inhibition effect owing to SUN was enhanced
- spheroid proliferation (ACHN-R cells; SITA alone, dose-response): did not affect the spheroid proliferation
- spheroid proliferation (ACHN-R cells; [3]): suppressed the spheroid proliferation
- spheroid proliferation (769-P-R cells; SITA alone, dose-response): did not affect the spheroid proliferation
- spheroid proliferation (769-P-R cells; [3]): suppressed the spheroid proliferation
- IL6 mRNA level (IL6 mRNA [2]): reduced the expression of mRNA of IL6
- spheroid proliferation (ACHN cells): did not affect the spheroid proliferation
- spheroid proliferation (769-P cells): did not affect the spheroid proliferation
- Ki67 index (ratio of Ki67 positive cells) (ACHN-R xenograft tumor; SITA and SUN in combination, ACHN-R xenograft tumor): reduced the Ki67 index
- sunitinib resistance of the RCC xenograft tumor (ACHN-R xenograft tumor; SITA in combination with SUN): contributed to overturn the sunitinib resistance
- expression of IL6 (mRNA level) in tumor (ACHN-R xenograft tumor; SITA in combination with SUN, ACHN-R xenograft tumor): expression of IL6 decreased
- proliferation of the tumor (tumor volume, tumor weight) (ACHN-R xenograft tumor; SUN (20 mg/kg) and SITA (30 mg/kg) orally in combination, ACHN-R xenograft, 13th day): proliferation of the tumor was suppressed to the similar degree to the ACHN xenograft tumor
